Assay [1] concerns the target T1, alpha-synuclein aggregates (Lewy bodies and Lewy neurites) (Homo sapiens, UniProt P37840).
T1 construct: performed on frozen human brain sections from different alpha-synucleinopathy cases; from tissue; host or cells: frozen human brain sections (PD, PDD, MSA, DLB, LBV)
The assay can be described thus: High resolution micro-autoradiography, target engagement in alpha-synucleinopathy tissues. The format is binding. Conditions: frozen human brain sections, PD, MSA, DLB, LBV, PDD; 10 nM or 20 nM. The method, then:
(§1) The protocol was adapted from Marquie et al., 2015. Sections were incubated with tritiated example compound 1 ([^3H]-Example-1) at 10 nM or 20 nM or a reference Tau ligand ([^3H]-Tau-Ref at 20 nM for one hour at room temperature (RT). Sections were then washed as follows: One time in ice-cold 50 mM Tris-HCl pH 7.4 buffer for one minute, two times in 70% ice-cold ethanol for one minute, one time in ice-cold 50 mM Tris-HCl pH 7.4 buffer for one minute and finally rinsed briefly in ice-cold distilled water. Sections were subsequently dried and then exposed to Ilford Nuclear Emulsion Type K5 (Agar Scientific, AGP9281) in a light-proof slide storage box. After five days, the sections were developed by immersing them successively in the following solutions: 1.) Ilford Phenisol Developer (1:5 dilution in H2O, Agar Scientific, AGP9106), 2.) Ilfostop solution (1:20 dilution in H2O, Agar Scientific, AGP9104), 3.) Ilford Hypam Fixer (1:5 dilution in H2O, Agar Scientific, AGP9183) and finally rinsed with H2O.
When indicated, immunostaining was also performed on the same section. For image acquisition, sections were mounted using ProLong Gold Antifade reagent (Invitrogen P36930) and imaged on a Panoramic150 Slide Scanner (3DHistech) with a 20×objective capturing separately brightfield and fluorescent images. […]

The target of assay [2] is T2, pathological alpha-synuclein aggregates (Homo sapiens, UniProt P37840, G51D).
T2 construct: Frozen human brain sections from one familial PD case; from tissue; host or cells: frozen human brain sections: SNCA (G51D) familial PD, PDD, MSA, LBV, non-demented controls
Kind of assay: Autoradiography on frozen human brain sections (specific binding, Kd). The method, then:
(§2) Frozen human brain sections from one familial PD case (alpha-synuclein [SNCA] gene G51D missense mutation), labelled as SNCA (G51D), one PDD case, one MSA case, one LBV case and two non-demented control (NDC) cases were first briefly fixed for 15 minutes at 4° C. with 4% paraformaldehyde (Sigma, 252549) and washed three times for five minutes with PBS (Dulbecco's phosphate buffered saline, Sigma) at RT. All slides were then equilibrated for 20 minutes in 50 mM Tris-HCl pH 7.4 buffer prior to use in the experiment. Each brain section was incubated with a fixed concentration (10 nM) of tritiated example compound 1 ([^3H]-Example-1) or increasing concentrations of [^3H]-Example-1 in the range of 2.5 nM to 80 nM of tritiated compound in Tris-HCl buffer for two hours at RT (Total binding, ‘TB’). To determine non-specific (NSB) binding ([^3H]-Example-1 was mixed with 5 μM of non-radiolabelled compound (Example 1, self-block, ‘NSB’). The slides were washed and then exposed and scanned in a real-time autoradiography system (BeaQuant instrument, ai4R). Specific binding was determined by subtracting the non-specific signal from the total signal. Kd values were calculated in GraphPad Prism7 by applying a nonlinear regression curve fit using a one site specific binding model.

The subject of assay [3] is pathological alpha-synuclein aggregates. The assay is described as above. To be noted: 10 nM. The method, then: as §2
Assay [4] addresses T3, PD brain-derived alpha-synuclein aggregates (Homo sapiens, UniProt P37840).
T3 construct: from tissue; host or cells: human PD donor brain, sarkosyl-insoluble pellet
The assay can be described thus: Saturation binding on PD brain-derived alpha-synuclein aggregates by micro-radiobinding. To be noted: PD brain tissue homogenates. The method, then: The procedure was adapted from the protocol described in Spillantini et al., 1998. Frozen tissue blocks from PD donors were thawed on ice and homogenized using a glass dounce homogenizer. The homogenate was then centrifuged at 11,000×g (12,700 RPM) in an ultracentrifuge (Beckman, XL100K) for 20 minutes at 4° C. using a pre-cooled 70.1 rotor (Beckman, 342184). Pellets were resuspended in extraction buffer [10 mM Tris-HCl pH 7.4, 10% sucrose, […], 1% protease inhibitor (Calbiochem 539131), 1 mM EGTA, 1% phosphatase inhibitor (Sigma P5726 and P0044)] and centrifuged at 15,000×g (14,800 RPM, a 70.1 Ti rotor) for 20 minutes at 4° C. […]
PD brain-derived alpha-synuclein aggregates were spotted onto microarray slides. […] Following exposure, phosphor storage screens were scanned with a laser imaging system (Typhoon FLA 7000) to readout the signal from the radiobinding experiments described above. Quantification of the signal was performed using the ImageJ software package. Non-specific signal was determined with an excess of non-radiolabelled reference ligand (Example-1 at 2 μM) and specific binding was calculated by subtracting the non-specific signal from the total signal. Kd values were calculated in GraphPad Prism7 by applying a nonlinear regression curve fit using a one site specific binding model.

A further assay relates to Tau aggregates. Kind of assay: High resolution micro-autoradiography on AD tissue containing pathological Tau aggregates. The format is binding, human. The method, then: as §1
When indicated, immunostaining was also performed on the same section. For image acquisition, sections were mounted using ProLong Gold Antifade reagent (Invitrogen P36930) and imaged on a Panoramic150 Slide Scanner (3DHistech) with a 20×objective capturing separately brightfield and fluorescent images.

The target in assay [5] is T3, PD brain-derived alpha-synuclein aggregates. Kind of assay: Micro-radiobinding competition assay for the determination of binding affinity. To be noted: human PD brain-derived alpha-synuclein aggregates; for inhibition at 0.1 µM: 100 nM non-radiolabelled compound, read-out: Micro-radiobinding competition assay Competition at 100 nM (%); for inhibition at 0.1 µM / inhibition at 1 µM: competition over tritiated [3H]-Example-1 ligand; for inhibition at 1 µM: 1 μM non-radiolabelled compound, read-out: Micro-radiobinding competition assay Competition at 1 μM (%); for Ki: * = mean of two independent experiments, two donors. The method, then:
The procedure was adapted from the protocol described in Spillantini et al., 1998. Frozen tissue blocks from PD donors were thawed on ice and homogenized using a glass dounce homogenizer. The homogenate was then centrifuged at 11,000×g (12,700 RPM) in an ultracentrifuge (Beckman, XL100K) for 20 minutes at 4° C. using a pre-cooled 70.1 rotor (Beckman, 342184). Pellets were resuspended in extraction buffer [10 mM Tris-HCl pH 7.4, 10% sucrose, […], 1% protease inhibitor (Calbiochem 539131), 1 mM EGTA, 1% phosphatase inhibitor (Sigma P5726 and P0044)] and centrifuged at 15,000×g (14,800 RPM, a 70.1 Ti rotor) for 20 minutes at 4° C. Pellets were discarded and sarkosyl (20% stock solution, Sigma L7414) was added to the supernatants to a final concentration of 1% at room temperature for one hour. This solution was then centrifuged at 100,000×g (38,000 RPM, 70.1 Ti rotor) for one hour at 4° C. Pellets containing enriched alpha-synuclein aggregates were resuspended in PBS and stored at −80° C. until use.
PD brain-derived alpha-synuclein aggregates were spotted onto microarray slides. The slides were incubated with [^3H]-alpha-synuclein reference at 6 nM or 20 nM and the example compounds (non-radiolabelled) at 1 μM and 100 nM. In some cases, the non-radiolabelled example compounds were further assessed for a range of different concentrations, varying from 0.05 nM to 2 μM. After incubation, slides were washed and scanned by a real-time autoradiography system (BeaQuant, ai4R). Quantification of the signal was performed by using the Beamage image analysis software (ai4R). Non-specific signal was determined with an excess of non-radiolabelled Example-1 (2 μM) and specific binding was calculated by subtracting the non-specific signal from the total signal. Competition was calculated as percent, where 0% was defined as the specific binding in the presence of vehicle and 100% as the values obtained in the presence of excess of the non-radiolabelled Example-1. Ki values were calculated in GraphPad Prism7 by applying a nonlinear regression curve fit using a one site, specific binding model. All measurements were performed with at least two technical replicates. For compounds tested in more than one experiment, the mean of the replicates or Ki values in independent experiments is reported.
Results: Example compounds were assessed for their potency to compete with the binding of [^3H]-reference alpha-synuclein ligand to PD patient brain-derived alpha-synuclein aggregates. Results of the micro-radiobinding competition assay for the example compounds tested are shown in Table 3 as: % competition at 1 μM and 100 nM.
Table 3: Assessment of binding affinity by micro-radiobinding competition assay on human PD brain-derived alpha-synuclein aggregates. Percent (%) competition over the tritiated [^3H]-Example-1 ligand in the presence of 1 μM and 100 nM of example compounds 1-9. Ki values are also shown for selected example compounds. *, mean of Ki values in two independent experiments using PD brain-derived homogenates from two different donors.

The target in assay [6] is T4, Abeta pathological aggregates (Homo sapiens, UniProt P05067).
T4 construct: Abeta pathological aggregates present in the human AD brain homogenates; from tissue; host or cells: human AD donor brain, Triton/sucrose-insoluble fraction
T4 sequence (P05067 672-713 limits assumed): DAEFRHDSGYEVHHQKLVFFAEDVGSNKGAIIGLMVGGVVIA
Kind of assay: Radiobinding competition assay on AD brain homogenates, displacement of [3H]-Abeta-Ref. The format is binding. The method, then: The procedure was adapted from the protocol described in Bagchi et al., 2013. Frozen tissue blocks from AD donors were thawed on ice and homogenized in high salt buffer (50 mM Tris-HCl pH 7.5, 0.75M NaCl, 5 mM EDTA) supplemented with protease inhibitors (Complete; Roche 11697498001) at 4° C. using a glass Dounce homogenizer. The homogenate was centrifuged at 100,000×g (38,000 RPM) in an ultracentrifuge (Beckman, XL100K) for one hour at 4° C. using a pre-cooled 70.1 rotor (Beckman, 342184). Pellets were resuspended in high salt buffer supplemented with 1% Triton X-100 and homogenized at 4° C. using a glass Dounce homogenizer. […]
A fixed concentration of AD insoluble fraction was incubated with a tritiated reference Abeta ligand ([^3H]-Abeta-Ref) at 10 nM and increasing concentrations of non-radiolabelled example compound 1 in the range of […] to 2 μM for two hours at RT. […] The filters were analyzed on a Microbeta2 scintillation counter (PerkinElmer). Non-specific signal was determined with an excess of non-radiolabelled reference ligand (2 μM) and specific binding was calculated by subtracting the non-specific signal from the total signal. Competition was calculated as percent, where 0% was defined as the specific binding in the presence of vehicle and 100% as the values obtained in the presence of excess of the non-radiolabelled reference ligand. […]
(In general: Loss of bound radioactivity is the signal in a displacement assay; it reports binding, not function.)

For orientation: Kd means the equilibrium constant for the complex coming apart. For orientation: Ki means a measure of affinity in units of concentration, obtained from inhibition or displacement.

“Also recorded” adds a separate entry of the source. Where a name gives a salt, the structure may show the parent alone.

With `[3H]c1cncc(N2Cc3cc(-c4cnc(N5CC[C@H](F)C5)c([3H])c4)nn3C2=O)c1` [[^3H]-Example-1], the “Target engagement on Lewy bodies and Lewy neurites (silver grains co-localized with a-syn-pS129)” value in assay [1] was “strong target engagement”. Also, in assay [2] (2.5 nM to 80 nM, SNCA (G51D) brain sections), the “Autoradiography signal in a genetic PD case” value was “dose-dependent autoradiography signal”. For the same molecule, the Kd worked out at 44 nM in assay [2] (human brain tissue sections, familial PD case (SNCA G51D missense mutation), autoradiography) and 18 nM in assay [4]. The “Autoradiographic signal in non-demented control cases” value in assay [3] (non-demented control (NDC) brain sections) is listed as “very weak”. The “Target engagement in alpha-synucleinopathy tissues by autoradiography” value in assay [3] (one PDD, one LBV and one MSA case) was “displayed target engagement”. Moreover, the “Selectivity for alpha-synuclein over Tau pathological aggregates” value in the assay on Tau aggregates (AD brain tissue) is recorded as “good selectivity for alpha-synuclein over Tau”. Also, the “Target engagement on Tau aggregates in AD brain tissue” value in the assay on Tau aggregates (AD tissue, compared to reference Tau ligand [3H]-Tau-Ref) is given as “did not display specific target engagement; also recorded: No accumulation of silver grains”.
As for `O=C1N(c2cccnc2)Cc2cc(-c3ccc(N4CC[C@H](F)C4)nc3)nn21` [Example 1, (S)-2-(6-(3-fluoropyrrolidin-1-yl)pyridin-3-yl)-5-(pyridin-3-yl)-4H-imidazo[1,5-b]pyrazol-6(5H)-one hydrochloride], in assay [5], the inhibition at 0.1 µM was 56%; the inhibition at 1 µM amounted to 91%; the affinity, expressed as Ki, was 69 nM. Moreover, the Ki in assay [6] (displacement of [3H]-Abeta-Ref (10 nM) on AD brain-derived homogenates) came out at 360 nM. Further, the “Selectivity for alpha-synuclein over Abeta pathological aggregates” value in assay [6] (human AD brain homogenates versus PD brain binding affinity) is on record as “good selectivity”.
Consider `O=C1N(c2ccns2)Cc2cc(-c3ccc(N4CC[C@H](F)C4)nc3)nn21` [Example 21, (S)-2-(6-(3-fluoropyrrolidin-1-yl)pyridin-3-yl)-5-(isothiazol-5-yl)-4,5-dihydro-6H-imidazo[1,5-b]pyrazol-6-one hydrogen chloride salt], for which, in assay [5], the inhibition at 0.1 µM stood at 82% and the inhibition at 1 µM is 90%.
With `Cc1ncc(N2Cc3cc(-c4ccc(N5CC[C@@H](F)C5)nc4)nn3C2=O)s1` [Example 18, (R)-2-(6-(3-fluoropyrrolidin-1-yl)pyridin-3-yl)-5-(2-methylthiazol-5-yl)-4,5-dihydro-6H-imidazo[1,5-b]pyrazol-6-one hydrogen chloride salt], in assay [5], the inhibition at 0.1 µM is 51%, the inhibition at 1 µM was 83% and the Ki came out at 51 nM.
